These results are taken from US7964724B2, “Chiral cis-imidazolines” (Hoffmann-La Roche Inc., priority 2004, dated 2011).

Where a name gives a salt, the structure may show the parent alone.

For orientation: IC50 means the concentration at which inhibition is half-maximal.

Chain of interaction between p53 and MDM2 proteins (recombinant GST-tagged MDM2 / biotinylated p53-peptide) (Q00987 whole entry): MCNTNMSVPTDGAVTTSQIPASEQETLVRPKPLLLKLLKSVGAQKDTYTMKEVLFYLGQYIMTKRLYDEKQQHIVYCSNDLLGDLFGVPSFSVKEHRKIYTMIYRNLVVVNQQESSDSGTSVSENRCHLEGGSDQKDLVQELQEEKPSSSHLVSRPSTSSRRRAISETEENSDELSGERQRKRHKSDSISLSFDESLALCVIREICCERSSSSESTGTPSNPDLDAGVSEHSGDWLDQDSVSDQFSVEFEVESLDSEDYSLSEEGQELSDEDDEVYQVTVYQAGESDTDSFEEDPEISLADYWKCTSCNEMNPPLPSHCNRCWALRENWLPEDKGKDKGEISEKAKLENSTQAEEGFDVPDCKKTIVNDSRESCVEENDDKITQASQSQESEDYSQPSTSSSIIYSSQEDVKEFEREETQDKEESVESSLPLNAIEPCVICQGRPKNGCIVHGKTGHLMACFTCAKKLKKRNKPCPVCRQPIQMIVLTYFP

The target of this experiment is interaction between p53 and MDM2 proteins (recombinant GST-tagged MDM2 / biotinylated p53-peptide) (Homo sapiens, UniProt Q00987). Kind of experiment: HTRF assay of inhibition of the p53-MDM2 interaction (In Vitro Activity Assay). The format is binding. As for the experimental part:
The ability of the compounds to inhibit the interaction between p53 and MDM2 proteins was measured by an HTRF (homogeneous time-resolved fluorescence) assay in which recombinant GST-tagged MDM2 binds to a peptide that resembles the MDM2-interacting region of p53 (Lane et al.). Binding of GST-MDM2 protein and p53-peptide (biotinylated on its N-terminal end) is registered by the FRET (fluorescence resonance energy transfer) between Europium (Eu)-labeled anti-GST antibody and streptavidin-conjugated Allophycocyanin (APC). Test is performed in black flat-bottom 384-well plates (Costar) in a total volume of 40 uL containing: 90 nM biotinylate peptide, 160 ng/ml GST-MDM2, 20 nM streptavidin-APC (PerkinElmerWallac), 2 nM Eu-labeled anti-GST-antibody (PerkinElmerWallac), 0.2% bovine serum albumin (BSA), 1 mM dithiothreitol (DTT) and 20 mM […] (TBS) buffer as follows: Add 10 uL of GST-MDM2 (640 ng/ml working solution) in reaction buffer to each well. Add 10 uL dilution compounds (1:5 dilution in reaction buffer) to each well, mix by shaking, Add 20 uL biotinylated p53 peptide (180 nM working solution) in reaction buffer to each well and mix on shaker. Incubate at 37° C. for 1 h. Add 20 uL streptavidin-APC and Eu-anti-GST antibody mixture (6 nM Eu-anti-GST and 60 nM streptavidin-APC working solution) in TBS buffer with 0.2% BSA, shake at room temperature for 30 minutes and read using a TRF-capable plate reader at 665 and 615 nm (Victor 5, Perkin ElmerWallac). If not specified, the reagents were purchased from Sigma Chemical Co.
For orientation: TR-FRET usually uses a lanthanide donor and a delayed reading to cut background.
Take `CCOc1cc(C(C)(C)C)ccc1C1=N[C@@H](c2ccc(F)cc2)[C@@H](c2ccc(F)cc2)N1C(=O)N1CCN(CCS(C)(=O)=O)CC1` [Example 26, [(4S,5R)-2-(4-tert-Butyl-2-ethoxy-phenyl)-4,5-bis-(4-fluoro-phenyl)-4,5-dihydro-imidazol-1-yl]-[4-(2-methanesulfonyl-ethyl)-piperazin-1-yl]-methanone hydrochloride]: the IC50 stood at 60 nM. In the case of `CCOc1cc(C(C)(C)C)ccc1C1=N[C@@H](c2ccc(F)cc2)[C@@H](c2ccc(F)cc2)N1C(=O)N1CCNC(=O)C1` [Example 27, 4-[(4S,5R)-2-(4-tert-Butyl-2-ethoxy-phenyl)-4,5-bis-(4-fluoro-phenyl)-4,5-dihydro-imidazole-1-carbonyl]-piperazin-2-one hydrochloride] it was 3100 nM; in that of `C#Cc1ccc([C@@H]2[C@H](c3ccc(C#C)cc3)N=C(c3ccc(C(C)(C)C)cc3OCC)N2C(=O)N2CCN(CCS(C)(=O)=O)CC2)cc1` [Example 35, [(4S,5R)-2-(4-tert-Butyl-2-ethoxy-phenyl)-4,5-bis-(4-ethynyl-phenyl)-4,5-dihydro-imidazol-1-yl]-[4-(2-methanesulfonyl-ethyl)-piperazin-1-yl]-methanone hydrochloride], 11 nM; in that of `CCOc1cc(C(C)(C)C)ccc1C1=N[C@@H](c2ccc(Cl)cc2)[C@@H](c2ccc(Cl)cc2)N1C(=O)N1CCC(N2CCCC2)CC1` [Example 74, [(4S,5R)-2-(4-tert-Butyl-2-ethoxy-phenyl)-4,5-bis-(4-chloro-phenyl)-4,5-dihydro-imidazol-1-yl]-(4-pyrrolidin-1-yl-piperidin-1-yl)-methanone hydrochloride], 24 nM.
